Common to all, as to assay type: cell-based
The subject of experiment [1] is FaDu (head and neck cancer) cell line. Kind of experiment: MTT cytotoxicity assay, FaDu. The settings on record: Homo sapiens, read-out: Cytotoxicity FaDu (nM, 72 hour). The method, then: (§1) Tumor cell lines were maintained in RPMI1640 medium supplemented with 10% heat-inactivated fetal bovine serum, 2 mM L-glutamine and 1 mM sodium pyruvate. 1800 cells per well were seeded in a volume of 180 μl in a 96-well flat bottom polystyrene plate. The cells were allowed to adhere overnight at 37° C. in a CO2 incubator. Ligands were initially formulated in DMSO, and stocks stored at −80° C. They were then further formulated at lox concentration in RPMI1640 medium. 20 ul of diluted samples were added into each treatment well. On each plate, blank wells with no cells, and untreated wells containing cells, were included. Plates were then cultured at 37° C. in a CO2 incubator for 72 hrs. Cytotoxicity was evaluated using a tetrazolium salt-based assay, the MTT assay. After 72 hours, the supernatant was removed from each well and 200 μl of a sterile filtered 500 μg/ml MTT solution in water added to each well. The plates were then incubated at 37° C. in a CO2 incubator for 4 hrs. The supernatant was then removed and the formazan crystals formed solubilized by adding 150 μl of DMSO to each well. The plate was then read on a plate reader at 540 nm, and percentage cell survival calculated as follows: ((mean absorbance treated wells at concentration x−mean absorbance blank wells)[…](mean absorbance untreated wells at concentration x−mean absorbance blank wells))×100. Data were plotted as concentration in nM vs. % cell survival in Microsoft Excel, and IC50 values (concentration where cell survival is reduced by a half) were determined from the graph.
In general terms: Formazan colour is commonly taken as a measure of viable cells.

Another experiment relates to PC3 (prostate) cell line. The experiment can be described thus: MTT cytotoxicity assay, PC3. The settings on record: read-out: Cytotoxicity PC3 (nM, 72 hour). On the procedure: as §1
For the next experiment, the system named is SW48 cell line (gastric). The experiment can be described thus: MTT cytotoxicity assay, SW48. The settings on record: Homo sapiens, SW48, 72 h, read-out: Cytotoxicity SW48 (72 hrs). On the procedure: as §1
For experiment [2], the system named is LIM1215 cell line (gastric). Kind of experiment: MTT cytotoxicity assay, LIM1215. The settings on record: LIM1215, 72 h, read-out: Cytotoxicity LIM1215 (72 hours). The method, then:
as §1

Experiment [3] concerns SW620 cell line (gastric). The experiment can be described thus: MTT cytotoxicity assay, SW620. The settings on record: Homo sapiens, SW-620, 72 h, read-out: Cytotoxicity SW620 (72 hours). On the procedure:
as §1

pIC50: −log10 of the molar value. Read-outs that look alike come from different tables or passages of the source.

As to `COc1cc2c(cc1OCCCCCC(=O)N1C[C@@H](CCl)c3c1cc(OC(=O)N1CCN(C)CC1)c1ccccc31)N=C[C@@H]1CCCCN1C2=O` [Compound 57, (S)-1-(Chloromethyl)-3-(6-(((S)-2-methoxy-12-oxo-6a,7,8,9,10,12-hexahydrobenzo[e]pyrido[1,2-a][1,4]diazepin-3-yl)oxy)hexanoyl)-2,3-dihydro-1H-benzo[e]indol-5-yl 4-methylpiperazine-1-carboxylate], the IC50 in experiment [1] (72 h) is greater than 10 nM; in the experiment with PC3 (prostate) cell line (72 h), 3 nM. The pIC50 in the experiment on SW48 cell line (gastric) was 10.38; in experiment [2], 9.39; in experiment [3], 8.96.
For the molecule `COc1cc2c(cc1OCCCC(=O)N1C[C@@H](CCl)c3c1cc(OC(=O)N1CCN(C)CC1)c1ccccc31)N=C[C@@H]1CCCCN1C2=O` [Compound 55, (S)-1-(Chloromethyl)-3-(4-(((S)-2-methoxy-12-oxo-6a,7,8,9,10, 12-hexahydrobenzo[e]pyrido[1,2-a][1,4]diazepin-3-yl)oxy)butanoyl)-2,3-dihydro-1H-benzo[e]indol-5-yl 4-methylpiperazine-1-carboxylate], the results for the IC50 (in experiment [1] (72 h); in the experiment with PC3 (prostate) cell line (72 h)) were 1.5 nM and 0.02 nM, respectively.
`COc1cc2c(cc1OCCCC(=O)N1C[C@@H](CCl)c3c1cc(O)c1ccccc31)N=C[C@@H]1Cc3ccccc3CN1C2=O` [Compound 53, (S)-3-(4-((S)-1-(Chloromethyl)-5-hydroxy-1,2-dihydro-3H-benzo[e]indol-3-yl)-4-oxobutoxy)-2-methoxy-7,12-dihydrobenzo[5,6][1,4]-diazepino[1,2-b]isoquinolin-14(6aH)-one]: the IC50 in experiment [1] (MTT assay, 72 hour incubation) turned out to be 0.65 nM; with PC3 (prostate) cell line (MTT assay, 72 hour incubation) it was 0.02 nM.

For the origin of these results see patent US20240002379A1, “ASYMMETRIC CONJUGATE COMPOUNDS” (Pheon Therapeutics Ltd., priority 2016, published 2024).
